2 compounds from publication PMC12175894 (Science Advances, 2025) can be followed below.

A word on the Emax: it is the size of the effect at its maximum, as opposed to the concentration needed. As usually defined, the EC50 is the concentration giving half of the maximal effect. In general, Ki refers to the dissociation constant of the complex between target and ligand, obtained from inhibition or displacement.

The subject of data set [1] is 5-HT1AR KO mice. As to the kind of experiment: 52°C hot plate in 5-HT1AR KO mice. In kind it is in vivo, mouse.
The target in data set [2] is T1, 5-HT1AR wildtype (Homo sapiens, UniProt P08908).
T1 construct: host or cells: HEK293T, HEK293A, HEK293AΔGs, HEK293AΔGi/o, HEK293AΔARRB1/B2
T1 sequence (P08908 1-422): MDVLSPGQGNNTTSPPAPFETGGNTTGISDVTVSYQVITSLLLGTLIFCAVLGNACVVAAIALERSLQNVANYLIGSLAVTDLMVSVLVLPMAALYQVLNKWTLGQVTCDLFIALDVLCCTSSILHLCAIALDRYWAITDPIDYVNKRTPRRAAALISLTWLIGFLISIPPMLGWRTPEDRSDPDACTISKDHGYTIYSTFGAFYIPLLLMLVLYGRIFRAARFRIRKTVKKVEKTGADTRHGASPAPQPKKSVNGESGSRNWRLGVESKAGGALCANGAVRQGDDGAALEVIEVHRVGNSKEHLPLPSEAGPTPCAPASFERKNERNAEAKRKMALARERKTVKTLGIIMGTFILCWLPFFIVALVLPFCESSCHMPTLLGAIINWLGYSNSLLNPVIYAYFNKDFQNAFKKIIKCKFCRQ
As to the kind of experiment: GloSensor cAMP assay in HEK293A cells. The data set is classed as cell-based. In general terms: Cyclic AMP is a second messenger, typically raised through Gs and lowered through Gi signalling.

Data set [3] concerns male C56BL/6 mice. As to the kind of experiment: 50°C tail flick. The data set is classed as in vivo, mouse. The note with it: 10 mg/kg i.p.
The subject of data set [4] is male C56BL/6 mice. As to the kind of experiment: Hargreaves test. In kind it is in vivo, mouse. The note with it: for response latency, Hargreaves: 10 mg/kg i.p.
The target of data set [5] is T2, 5-HT1AR (Homo sapiens, UniProt P08908).
T2 sequence (P08908 1-422): T1 sequence (P08908 1-422)
As to the kind of experiment: GloSensor cAMP assay in HEK293T cells. Further details: host or cells: HEK293T, HEK293A, HEK293AΔGs, HEK293AΔGi/o, HEK293AΔARRB1/B2. In kind it is cell-based.

The target in data set [6] is T3, 5-HT1AR F112^3.28W (Homo sapiens, UniProt P08908, F112W).
T3 sequence (P08908 1-422 F112W): T1 sequence (P08908 1-422) with F112W
As to the kind of experiment: Radioligand competition, displacement of [3H]WAY100635. The data set is classed as binding.

Data set [7] deals with male C56BL/6 mice. As to the kind of experiment: SNI model of neuropathic pain. The data set is classed as in vivo, mouse.
The target in data set [8] is adrenergic α2A (Homo sapiens, UniProt P08913). As to the kind of experiment: Radioligand displacement, [3H]RX821002. Background: Loss of bound radioactivity is the signal in a displacement assay; it reports binding, not function.
adrenergic α2A, sequence (P08913 whole entry): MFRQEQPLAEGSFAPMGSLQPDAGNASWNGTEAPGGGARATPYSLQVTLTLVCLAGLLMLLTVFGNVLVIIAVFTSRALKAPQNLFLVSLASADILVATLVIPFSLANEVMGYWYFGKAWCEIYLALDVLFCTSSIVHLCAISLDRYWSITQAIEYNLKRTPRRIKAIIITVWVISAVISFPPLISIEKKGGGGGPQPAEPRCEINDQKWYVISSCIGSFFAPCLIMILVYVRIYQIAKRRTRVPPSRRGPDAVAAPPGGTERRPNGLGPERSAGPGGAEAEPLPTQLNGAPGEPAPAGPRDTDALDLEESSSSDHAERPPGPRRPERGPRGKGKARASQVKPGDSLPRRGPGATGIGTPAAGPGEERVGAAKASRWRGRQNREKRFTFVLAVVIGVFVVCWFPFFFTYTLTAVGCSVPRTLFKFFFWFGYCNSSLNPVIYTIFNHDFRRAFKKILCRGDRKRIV
Data set [9] has as its target T1, 5-HT1AR wildtype. As to the kind of experiment: β-arrestin 2 recruitment, enhanced bystander BRET in HEK293T with GRK2. The data set is classed as cell-based. The note with it: HEK-293T; read-out: Emax [% ± SEM], β-arrestin 2 recruitment. A general note: Activated receptors often draw arrestin, which recruitment assays turn into a signal.
Data set [10] concerns male C56BL/6 mice. As to the kind of experiment: 52°C hot plate. In kind it is in vivo, mouse. The note with it: wild-type mice, 10 mg/kg.
The subject of data set [11] is male C56BL/6 mice. As to the kind of experiment: von Frey assay, hind paw mechanical thresholds. As to conditions: 10 mg/kg i.p., 30 min after injection. In kind it is in vivo, mouse.
The target of data set [12] is adrenergic β1 (Homo sapiens, UniProt P08588). As to the kind of experiment: Radioligand displacement, [3H]CGP12177.
adrenergic β1, sequence (P08588 whole entry): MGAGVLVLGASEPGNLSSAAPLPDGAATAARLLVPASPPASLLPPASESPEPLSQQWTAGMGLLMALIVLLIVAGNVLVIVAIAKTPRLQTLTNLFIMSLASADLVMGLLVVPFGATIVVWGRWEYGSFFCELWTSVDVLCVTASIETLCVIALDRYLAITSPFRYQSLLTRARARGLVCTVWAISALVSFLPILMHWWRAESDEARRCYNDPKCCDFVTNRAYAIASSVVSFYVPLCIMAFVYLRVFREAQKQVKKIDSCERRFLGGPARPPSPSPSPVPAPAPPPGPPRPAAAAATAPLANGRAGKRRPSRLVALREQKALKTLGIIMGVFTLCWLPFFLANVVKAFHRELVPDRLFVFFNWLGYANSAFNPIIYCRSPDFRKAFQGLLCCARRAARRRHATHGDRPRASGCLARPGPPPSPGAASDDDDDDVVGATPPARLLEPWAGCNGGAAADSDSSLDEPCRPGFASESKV
Data set [13] deals with T4, 5-HT1AR Y96^2.64A (Homo sapiens, UniProt P08908, Y96A).
T4 sequence (P08908 1-422 Y96A): T1 sequence (P08908 1-422) with Y96A
As to the kind of experiment: GloSensor cAMP accumulation in HEK293AΔGi/o. In kind it is cell-based. The note with it: read-out: Emax [% ± SEM], cAMP accumulation.

The test system of data set [14] is male C56BL/6 mice. As to the kind of experiment: CFA-induced inflammatory pain model. In kind it is in vivo, mouse.
For data set [15], the system named is male C56BL/6 mice. As to the kind of experiment: Accelerating rotarod. The data set is classed as in vivo, mouse.
The target in data set [16] is T4, 5-HT1AR Y96^2.64A. As to the kind of experiment: Radioligand competition, displacement of [3H]WAY100635. In kind it is binding. As to conditions: for decrease of affinity when Y96^2.64 and Q97^2.65 were replaced by alanine: Y96A and Q97A mutants vs WT.
The target of data set [17] is T2, 5-HT1AR. As to the kind of experiment: Complementation-based β-arrestin 2 recruitment PathHunter assay. As to conditions: for Emax: relative to serotonin.
The test system of data set [18] is mice. As to the kind of experiment: Conditioned place preference. The data set is classed as in vivo, mouse. The note with it: 10 mg/kg i.p.
[19] abbreviates: read-out: Emax, β-arrestin 2 recruitment, PathHunter, elevated GRK2.
Setting [20] is: read-out: Emax, β-arrestin 2 recruitment, PathHunter, native GRK2.

Molecules are shown by their SMILES. Numbering of substitutions follows the chain as printed. “Also recorded” adds a separate entry of the source.

As for `COc1ccccc1OCCNCCCOc1ccc2c(c1)NC(=O)CO2` [ST171], the “response latency, hot plate in 5-HT1AR KO mice” value in data set [1] (10 mg/kg) is listed as “no significant antinociceptive effect”. Further, the Emax in data set [2] (HEK293-A, read-out: Emax [%±SEM], inhibition of cAMP accumulation) was 86 ± 5%; in [5] (HEK-293T, read-out: Emax [%±SEM], inhibition of cAMP accumulation), 100 ± 3%; in [9] it was < 5%; in [13] it was < 5%; in data set [17] (setting [19]), 15%; in data set [17] (setting [20]), < 5%. For the same compound, the EC50 in data set [2] (HEK293A, GloSensor, wildtype; read-out: EC50 left [nM±SEM], inhibition of cAMP accumulation) was found to be 3.4 ± 0.8 nM; in [5] (HEK293T, GloSensor; read-out: EC50 left [nM±SEM], inhibition of cAMP accumulation), 0.9 ± 0.2 nM; in [17], 5.5 ± 1.4 nM. Besides, the “response latency, 50°C tail flick” value in data set [3] was “antinociceptive”. Besides, in data set [4], the “response latency, Hargreaves” value is recorded as “antinociceptive”. The “antinociception, Hargreaves, lower doses” value in [4] (1 and 5 mg/kg) is listed as “not as antinociceptive as the 10 mg/kg dose”. In addition, the Ki in [6] (5-HT1AR F112W, HEK 293T membranes, read-out: Ki [nM ± SEM]) was 0.16 nM; in data set [8] (Ki [nM ± SD]), 260 nM; in data set [8] (pKi), 204 nM; in data set [12] (Ki [nM ± SD]), 1700 ± 350 nM; in data set [12] (pKi), 1630 nM; in [16] (5-HT1AR Y96A, HEK 293T membranes, read-out: Ki [nM ± SEM]), 63 nM. The “mechanical thresholds of the injured hind paw, SNI model” value in data set [7] (10 mg/kg intraperitoneal) is “significantly increased the mechanical thresholds”. Moreover, in data set [10], the “response latency, 52°C hot plate” value is reported as “antinociceptive”. Besides, the “mechanical thresholds, von Frey” value in data set [11] is recorded as “significantly increasing mechanical thresholds”. In addition, the “mechanical thresholds of the injured hind paw, CFA model” value in [14] (10 mg/kg intraperitoneal) is “significantly increased the mechanical thresholds”. The “sedative effects, accelerating rotarod” value is “did not differ from control mice injected with vehicle” in [15] (10 mg/kg) and “presumptive sedative effect” in [15] (15 mg/kg). For the same compound, the “decrease of affinity when Y96^2.64 and Q97^2.65 were replaced by alanine” value in data set [16] is “more than 150 fold”. Besides, the “conditioned place preference (rewarding properties)” value in data set [18] is listed as “rewarding; also recorded: induces CPP”.

As to `Cc1ccc(CNCC2(F)CCN(C(=O)c3ccc(F)c(Cl)c3)CC2)nc1` [befiradol, reference compound], the “response latency, hot plate in 5-HT1AR KO mice” value in data set [1] (1.0 mg/kg) is reported as “no significant antinociceptive effect”. For the same compound, the Emax in [2] (HEK293-A; read-out: Emax [%±SEM], inhibition of cAMP accumulation) was determined as 93 ± 2%; in [5] (HEK-293T; read-out: Emax [%±SEM], inhibition of cAMP accumulation) it was 111 ± 6%; in data set [9] it was 79 ± 1%; in data set [13], 69 ± 5%; in [17] (setting [19]), 96 ± 3%; in [17] (setting [20]), 67%. The “Esat [%±SEM]” value in data set [2] (HEK293A, GloSensor, wildtype) came out at 75 ± 3%; in data set [5] (HEK293T, GloSensor), 71 ± 6%. Further, in [3], the “response latency, 50°C tail flick” value is “antinociceptive”. In addition, in data set [4], the “response latency, Hargreaves” value is recorded as “antinociceptive”. Moreover, the “decrease in the binding affinity upon mutation of F112^3.28 to tryptophan” value in data set [6] (F112W vs WT) is 16 fold. The “mechanical allodynia, neuropathic pain model” value in [7] (lower, nonsedating doses (1 mg/kg)) is “did not reverse the mechanical allodynia”. In data set [10], the “response latency, 52°C hot plate” value was “antinociceptive”. Moreover, the “mechanical thresholds, von Frey” value in data set [11] is recorded as “significantly increasing mechanical thresholds”. For the same compound, the “mechanical sensitivity, CFA model” value in data set [14] (nonsedating dose 1 mg/kg) is on record as “reduced the mechanical sensitivity”. Moreover, in [15] (all doses >1 mg/kg), the “sedative effects, accelerating rotarod” value is “significantly reduced the ability of the mouse to continue on the rotarod”. Moreover, the “decrease of affinity when Y96^2.64 and Q97^2.65 were replaced by alanine” value in data set [16] is on record as 4.2- to 13.3 fold. Further, in data set [17] (PathHunter β-arrestin 2), the “increase in efficacy with elevated vs native GRK2” value was “approximately 30%”. Also, the “increase of potency with elevated vs native GRK2” value in data set [17] (PathHunter β-arrestin 2) is reported as 4 fold.
